Measurements taken from patent publication US20210040134A1, “COMBINATIONS OF MACROLIDE COMPOUNDS AND IMMUNE CHECKPOINT INHIBITORS” (ISR IMMUNE SYSTEM REGULATION HOLDING AB (PUBL), priority 2018, published 2021).

What was measured:
[1] = system: peripheral blood mononuclear cells (PBMC); experiment: Marker expression on stimulated PBMC by flow cytometry; assay type: cell-based, human; settings: 24 h
Method: Human peripheral blood mononuclear cells (PBMCs) were purified from healthy donors with Ficoll-Paque density centrifugation. Cells were cultured in complete RPMI-1640 media (Invitrogen) supplemented with 25 mM HEPES, L-glutamine, Sodium pyruvate (Sigma), 10% fetal bovine serum, 100 μg/mL penicillin and 100 μg/mL streptomycin (Hyclone) for 24-72 hours in 37° C., 5% CO2 and stimulated with and increasing concentrations of compound 1 and 2. Cells were then washed in PBS and stained with monoclonal antibodies specific for cell surface markers (BD Pharmingen) and analysed with flow cytomtetry using a BD FACS Canto II flow cytometer. All samples were tested in duplicates.
Human peripheral blood mononuclear cells (PBMCs) were purified from healthy donors with Ficoll-Paque density centrifugation. Cells were cultured in complete RPMI-1640 medium (Invitrogen) supplemented with 25 mM HEPES, L-glutamine, Sodium pyruvate (Sigma), 10% fetal bovine serum, 100 μg/mL penicillin and 100 μg/mL streptomycin (Hyclone). […] The cells were removed from the plate, washed in PBS and analysed for expression of cell specific surface markers and MHC class I with flow cytomtery using monoclonal antibodies from BD Pharmingen and a FACS Canto II flow cytometer.

macrophages = experiment: Cytokine secretion from macrophages (cytometric bead assay); assay type: cell-based, human
Method: FIG. 10: Interferon-gamma secretion (as measured by cytometric bead assay) from macrophages stimulated with indicated compound for 48 h.
(§1) FIG. 11: Chemokine RANTES secretion (as measured by cytometric bead assay) from PBMC or macrophages stimulated with indicated compound for 48 h.
(§2) FIG. 12: IL12p70 secretion (as measured by cytometric bead assay) from PBMC or macrophages stimulated with indicated compound for 48 h.
(§3) FIG. 13: IL1 b secretion (as measured by cytometric bead assay) from PBMC, macrophages or CD4 T cells stimulated with indicated compound for 48 h.
Study 9: Macrophages from healthy donors where exposed to compounds 1 or 2 for 48 hours. […] Compound 1 is therefore able to induce IFN-gamma secretion in macrophages from healthy donors.
(§4) Study 10: PBMCs and macrophages where exposed to compounds 1 or 2 for 2 days (FIG. 11).
(§5) Study 11: PBMCs and macrophages where exposed to compounds 1 and 2 for 2 days.
(§6) Study 12: PBMCs, macrophages and CD4+ T cells where exposed to compounds 1 and 2 for 2 days.

C57bl/6 mice = experiment: MHC class I expression on CD11b+ splenocytes of mice after i.v. injection; assay type: in vivo; settings: spleen removed 24 h later
Method: FIG. 15: % MHC class I high CD11 b+ cells in spleen of 3 individual C57bl/6 mice injected 24 h previously with indicated compound. MHC class I and CD11 b expression was measured by flow cytometry.
Study 14: Compound 1 or 2 was administered i.v. to C57bl/6 mice.

[2] = system: PBMCs from CMV infected donors; experiment: IFN-gamma secretion from PBMCs of CMV infected donors with CMV antigen (cytometric bead assay); assay type: cell-based, human; settings: 3 days
Text: FIG. 9: Interferon-gamma secretion (as measured by cytometric bead assay) from PBMCs (from a CMV+ donor) grown with CMV peptides in the presence or absence of compound 1 or A for 5 days.
Study 8: PBMCs from CMV infected donors cultured in the presence of CMV antigen where either untreated or exposed to compound 1 or compound 2 for 3 days.

CD4+ T cells = experiment: IL-1 beta secretion from CD4+ T cells (cytometric bead assay); assay type: cell-based, human; settings: 2 days
Method: as §3, §6

[3] = system: E. coli, S. salivarius, L. casei, B. longum, M. luteus; experiment: MIC assay, summary over all bacterial strains tested; assay type: cell-based; settings: any of the strains tested
Method: The bioactivity of macrolide compounds against 4 strains of common gut bacteria (Escherichia coli, Streptococcus salivarius subsp. salivarius, Lactobacillus casei and Bifidobacterium longum subsp. infantis) and common mammalian skin isolate Micrococcus luteus, was assessed using the Minimum Inhibitory Concentration (MIC) assay. Bacterial strains were purchased from DSMZ (Brunswick, Germany) except M. luteus which was obtained from NCIMB, and stored in 20% glycerol at −80° C. Stock solutions (100% DMSO) of positive controls (azithromycin and erythromycin), and of test compounds 1 and 2 were diluted in broth to working stock concentrations of 256 μg/ml (final assay testing concentration range 128 μg/ml to 0.00391 μg/ml). Stock solutions of all other compounds were diluted in broth to working stock concentrations of 128 μg/ml (final assay testing concentration range 64 μg/ml to 0.00195 μg/ml). Bacterial strains were cultivated in appropriate broth in an anaerobic chamber at 37° C., except for M. luteus which was incubated aerobically at 37° C. 18 h cultures were diluted in broth to an OD595 of 0.1 and then further diluted 1:10. In 96-well plates, in duplicate, 200 μl working stock of test compound was transferred to well 1 and serially diluted (1:2) in broth. 100 μl bacterial suspension was aliquoted into each well and mixed thoroughly. Appropriate sterility controls were included and plates were incubated in an anaerobic chamber, or aerobically (M. luteus) at 37° C. for 18 h. The MIC was determined to be the concentration of test compound in the first well with no visible growth.

[4] = Human microsome stability assay; assay type: in vitro ADME; settings: pH 7.4, human liver microsomes, read-out: T½
Method: Rate of metabolism in microsomes was tested as follows:
Human liver microsomes were diluted with buffer C (0.1 M Potassium Phosphate buffer, 1.0 mM EDTA, pH 7.4) to a concentration of […]. Microsomal stability studies were carried out by adding 30 μL of 1.5 μM compound spiking solution to wells (1.5 μL of 500 μM spiking solution (10 μL of 10 mM DMSO stock solution into 190 μL ACN to eventually generate final test concentration of 1 uM) and 18.75 μL of 20 mg/mL liver microsomes into 479.75 μL of Buffer C). All samples were pre-incubated for approximately 15 minutes at 37° C. Following this, the reaction was initiated by adding 15 μL of the NADPH solution (6 mM) with gentle mixing. Aliquots (40 μL) were removed at 0, 5, 15, 30 and 45 minutes and quenched with ACN containing internal standard (135 μL). Protein was removed by centrifugation (4000 rpm, 15 min) and the sample plate analysed for compound concentration by LC-MS/MS. Half-lives were then calculated by standard methods, comparing the concentration of analyte with the amount originally present.
The metabolic stability of the compounds of the invention was assessed in a standard human microsome stability assay (see general methods).

PBMCs = experiment: Cytokine secretion from PBMCs (cytometric bead assay); assay type: cell-based, human; settings: 2 days
Method: as §1, §2, §3, §4, §5, §6

CC[C@H]1OC(=O)[C@H](C)[C@@H](O[C@H]2C[C@@H](N(C)C)[C@H](O)[C@@H](C)O2)[C@H](C)[C@@H](O)[C@](C)(O)C[C@@H](C)CN(C)[C@H](C)[C@@H](O)[C@]1(C)O [Compound 1]
activation marker CD69 on CD4+ T cells and B cells ([1]; 1 μM): upregulated | MHC class I molecule (HLA-ABC) on T- and B-cells [1]: upregulation | IL-1 beta secretion in macrophages (macrophages; 2 days): increased | IL-12p70 secretion from macrophages (macrophages; 2 days): secreted IL-12p70 | IFN-gamma secretion from macrophages (macrophages; 48 hours): secreted IFN-gamma | splenocyte cells with high MHC I expression (CD11b+) (C57bl/6 mice): induced an increase | IFN-gamma secretion [2]: induced secretion of high levels of IFN-gamma | IL-1 beta secretion in CD4+ T cells (CD4+ T cells): no IL-1 beta was induced | antibacterial activity against the bacterial strains tested (in words) [3]: no antibacterial activity | half-life at 1 uM [4]: 1.8 h | IL-1 beta secretion in PBMCs (PBMCs): slightly | IL-12p70 secretion from PBMCs (PBMCs): secreted IL-12p70
